Assay results from patent US20200405671A1, “METHODS AND MATERIALS FOR TREATING POLYCYSTIC KIDNEY DISEASE” (Mayo Foundation for Medical Education and Research, priority 2019, published 2020).
“Also recorded” adds a separate entry of the source.

Assays:
[1] = tested on: Pkd1^RC/RC mice; experiment: Betaine supplementation in drinking water in Pkd1^RC/RC mice: kidney/body weight and cystic index from histological sections; assay type: in vivo; settings: p<0.01; for kidney/body weight: euthanized at 6 months of age, no betaine 2.25; for cystic index (percentage of cyst area within the total kidney section): no betaine 21.1%
Description: (§1) One month old Pkd1^RC/RC mice were divided into three groups and started treatment with regular water or regular water supplemented with 1% or 2% betaine (FIG. 2) for 5 months (n=16 per group). All mice were euthanized at 6 months of age, and kidneys harvested. Cystic index was determined from histological sections. 1H-NMR-based metabolomics analysis was performed from tissue urine and plasma samples.

[2] = 1H-NMR-based analysis of plasma and tissue betaine concentration after betaine supplementation; assay type: in vivo; settings: Pkd1^RC/RC mice, vs no betaine, p<0.001; for tissue betaine concentration: kidney tissue
Description: as §1

[3] = tested on: Pkd1^RC/RC mice; experiment: Intrarenal microvasculature quantified using a capillary index; assay type: in vivo; settings: 6 months of age
Description: as §1
Intrarenal microvasculature was quantified using a capillary index. Capillaries in the cortex were identified by the presence of lumen, red blood cells, and/or an endothelial cell lining. For the PKD animals, the number of capillaries is calculated adjusting for the cystic area.

[4] = tested on: Pkd1^RC/RC mice; experiment: Blood pressure (MAP) by tail cuff, CODA non-invasive blood pressure system; assay type: in vivo; settings: compared with wild type (WT) animals
Description: as §1
Blood pressure was determined during the same time frame (9-11 am) in all animals in all groups, using the CODA non-invasive blood pressure system (Kent Scientific). Briefly, mice were guided into a plastic mouse holder and were left to acclimate to the holder for 5 minutes. Ten blood pressure (BP) measurements within 10 minutes were obtained by tail cuff.

[5] = 1HNMR spectroscopy of stability of betaine in water; assay type: physicochemical; settings: 1% and 2% betaine in water, day 0, day 2 and day 8 (course of one week)
Text: FIG. 2: ^1HNMR spectroscopy depicting stability of betaine in water during the course of 1 week. Three spectral lines on top indicating 2% betaine represent betaine concentration as determined by ^1HNMR spectroscopy at day 0, day, 2 and day 8. Below, three spectral lines indicating 1% betaine represent betaine concentration as determined by ^1HNMR spectroscopy at day 0, day, 2 and day 8. At the bottom, flat spectra can be seen for the animals receiving control water without betaine, indicated as control day 2 and 8. Overall, betaine was stable and non-significant changes in betaine concentration were observed during the course of one week.

[6] = 1% betaine in drinking water for 5 months
[7] = 2% betaine in drinking water for 5 months

plasma betaine concentration ([2]; 1% betaine in drinking water): increased | plasma betaine concentration ([2]; 2% betaine in drinking water): increased | stability of betaine in water (betaine concentration) [5]: stable
SMILES: C[N+](C)(C)CC(=O)[O-] [betaine, trimethylglycine]
kidney/body weight [1, 6]: 1.82 | cystic index (percentage of cyst area within the total kidney section) [1, 6]: 11.1% | kidney/body weight [1, 7]: 1.85 | cystic index (percentage of cyst area within the total kidney section) [1, 7]: 9.4% | tissue betaine concentration ([2]; 1% betaine in drinking water): significant increases; also recorded: increased | tissue betaine concentration ([2]; 2% betaine in drinking water): significant increases; also recorded: increased | capillary count (intrarenal microvasculature) ([3]; 1% betaine, female animals): not effective | capillary count (intrarenal microvasculature) ([3]; 1% betaine, male animals): preserved the capillary count | capillary count (intrarenal microvasculature) ([3]; 2% betaine, female animals): preserved capillary count | capillary count (intrarenal microvasculature) ([3]; 2% betaine, male animals): preserved the capillary count | Mean Arterial Pressure (MAP) ([4]; 1% betaine): preserved MAP within WT levels | Mean Arterial Pressure (MAP) ([4]; 2% betaine): preserved MAP within WT levels
